The test system of test [1] is PC12 pheochromocytoma cells. The test is described as follows: Differentiating activity on PC12 pheochromocytoma cells. To be noted: 100 nM and 1 μM. It counts as cell-based. How it is done:
The cells are maintained in […] flasks at 37° C. in a humid atmosphere enriched by 5% CO2 in RPMI medium supplemented with 10% horse serum, 5% fetal calf serum, 1% glutamine and 1% penicillin/streptomycin mixture. The horse and fetal calf serums are decomplemented for 40 minutes at 56° C. before use. The cultures are divided when they reach 80% confluence, approximately every 3 days. Each operation is performed by scraping the cells and then centrifugation at 1,000 rpm for 5 minutes, mechanical dissociation of the cell aggregates and inoculation at the dilution desired. Before treatment, the cells are cultivated 5 days in a deprivation medium composed of RPMI supplemented with 1% horse serum, 0.5% fetal calf serum, 1% glutamine, 1% penicillin/streptomycin and 50 ng/ml NGF (nerve growth factor). After 5 days of pretreatment with NGF, the cells are washed twice with PBS (phosphate buffered saline), taken up in deprivation medium, scraped and pelleted at 1,000 rpm for 5 minutes. The cells are then dissociated, counted on a hemocytometer and inoculated at a concentration of 15.6×10^3 cells/cm^2. After 4 hours, the cells are treated by various compounds of the invention at the concentrations desired (stock solutions in absolute ethanol and then a series of dilutions in water). […] At least 20 differentiated cells per well are photographed at random and the length of their neurites are measured using the NeuronJ macro of the ImageJ software. The number of neurites is also counted. Mean total neurite length and number of neurites are then calculated per cell. […] In order to quantify the differentiation of PC12 cells we calculated the ratio between the number of cells emitting dendritic extensions and the total number of cells 48 hours after treatment with our substances at 100 nM and at 1 μM. Morphological changes at the microscopic level were quantified for the cells emitting extensions at approximately 100 cells per condition. Thus number of neurites and mean neurite length per cell were measured using the NeuronJ measurement software by ImageJ.

The subject of the next test is dopaminergic neurons. The test is described as follows: Measurement of tritiated dopamine reuptake in primary mesencephalic cultures. It counts as cell-based, rat. To be noted: 12 days of culture; 1 nM, 10 nM, 100 nM and 1 μM; FIG. 4. How it is done: The primary cultures are treated and cultivated as previously indicated for 12 days in a 24-well plate. The medium is then replaced by a medium lacking serum and enriched with glucose (PBS+5 mM glucose). One well is treated with GBR (5 μM) and will be used to determine nonspecific reuptake. The cells are incubated in this medium for 10 minutes. 50 μl of tritiated dopamine in solution (20 μl of 1 mCi/ml ^3H-dopamine in 1 ml PBS) is added in each well and the cells are incubated for 20 minutes at 37° C.
The wells are then washed twice with PBS, and then 500 μl distilled water is added. The cells are scraped and the liquid transferred to scintillation vials containing 7 ml scintillation liquid (Biodegradable Counting Scintillant-liquid scintillation spectroscopy, BCS), well by well. The samples are run through the scintillation counter.
Neurons at 12 days of culture are then cultivated for a short time in the presence of tritiated dopamine (H^3-DA). After washing, the cells are lysed and intraneuronal H^3-DA is recovered and assayed by scintillation counter.

Another test deals with MAP2+ neurons. The test is described as follows: Count of MAP2+ neurons in primary mesencephalic cultures (phenotypic specificity). It counts as cell-based, rat. To be noted: DIV12; 10 nM and 100 nM; FIG. 5. The source says: At 8 days of culture, the cells are fixed by a 4% formaldehyde solution and then washed three times with PBS. The cells then undergo several immunohistochemistry procedures: • anti-tyrosine hydroxylase (TH) visualized by a secondary antibody coupled to a fluorochrome that emits in the red spectrum (Cy3). • anti-MAP2 (MAP=microtubule-associated protein) (neuron marker) visualized by a secondary antibody coupled to a fluorochrome that emits in the green spectrum (alexa488). • DAPI (4′,6-diamidino-2-phenylindole), a nuclear marker that emits in the blue spectrum.
Neuroprotection is evaluated by counting TH positive neurons directly under the microscope or MAP2 positive on images, at 15 images per well, expressed as a percentage of the untreated control. The experiments include three wells per condition. Three independent experiments are carried out under these conditions. Total neurite length per cell calculated by the Neurite Outgrowth software by Explora Nova on 20 neurons photographed independently per well gives an indication of the state of maturation of the dopaminergic neurons. […]
First, the neurons are cultured and maintained at DIV12. […] The neurons are then counted via image with X20 enlargement at 15 images per well.

The next test deals with GABAergic neurons. The experiment in a line: Measurement of tritiated GABA reuptake in primary mesencephalic cultures. It is filed as cell-based, rat. To be noted: 12 days of culture; 10 nM and 100 nM; FIG. 6. How it is done:
The primary cultures are treated and cultivated as previously indicated with 0.5 embryo per well in a 24-well plate for 12 days. The medium is then replaced by a medium lacking serum and enriched with glucose (PBS+5 mM glucose). The cells are incubated in this medium for 10 minutes. 50 μl of tritiated GABA in solution (20 μl of 1 mCi/ml ^3H-GABA in 1 ml PBS) is added in each well and the cells are incubated for 5 minutes at 37° C. Since GABA is taken back up very quickly, it is important to be fast when adding reagents and not to handle too many wells at the same time.
All wells except one are then washed twice with PBS, and then 500 μl distilled water is added. The cells are scraped and the liquid transferred to scintillation vials containing 7 ml scintillation liquid (Biodegradable Counting Scintillant-liquid scintillation spectroscopy, BCS), well by well. The plate containing the remaining well is placed on ice for 30 minutes, then 50 μl of the same GABA solution is added. After 5 minutes, the well is washed twice with PBS and then the cells are lysed with 500 μl distilled water, scraped and the liquid is transferred to a vial containing 5 ml scintillation liquid. This well will be used to measure non-specificity. The samples are run through the scintillation counter.

Regarding `C#CC(O)CCCCCCCCCCCCC#Cc1ccc2ccccc2n1` (stereo not drawn) [Compound N3, 17-(quinolin-2-yl)heptadec-1,16-diyn-3-ol], in test [1] (48 hours after treatment, FIG. 1A), the “cells producing extensions (percentage of PC12 cells differentiated) by comparison with untreated cells” value is given as “two to three times as many cells produce extensions”. Moreover, in test [1] (PC12 cells, FIG. 1B), the “mean neurite length per cell compared to the control” value was “longer” and the “number of neurites per cell compared to the control” value is reported as “more”. Further, the “reuptake of tritiated dopamine by dopaminergic neurons versus untreated control” value with dopaminergic neurons is recorded as “increased”. Further, the “survival of total neurons of the culture (MAP2+ neurons) versus untreated control” value in the test with MAP2+ neurons is “increased”. Moreover, the “activity of total neurons of the culture (reuptake of tritiated GABA) versus untreated control” value with GABAergic neurons was “increased”.

The values above are taken from patent publication US8445511B2, “Quinoline or quinoxaline derivatives for treating neurodegenerative diseases” (Centre National de la Recherche Scientifique (SNRS), priority 2008, dated 2013).
